Results reported in patent US11884932B2, “In vitro production of medial ganglionic eminence precursor cells” (The Regents of the University of California, priority 2013, dated 2024).

Key:
[1] = tested on: spontaneous PSCs recorded from hESC-derived neurons post-injection; experiment: Whole-cell recording of spontaneous PSCs of transplanted hESC-derived neurons in mouse brain slices; format: cell-based, human; details: mouse brain slices 7 MPI
Protocol: (§1) For cultured neurons, the bath was constantly perfused with fresh recording medium containing (in mM): 145 NaCl, 3 KCl, 3 CaCl2, 2 MgCl2, 10 HEPES, 8 glucose. Transverse slices (300 μm) were cut on a […] (Leica VT1200S) and maintained in an incubation chamber with aCST containing (in mM): 110 Choline Cl, 2.5 KCl, 0.5 CaCl2, 7 MgCl2, 1.3 NaH2PO4, 25 NaHCO3, 10 glucose. Slice recording medium contained (in mM): 125 NaCl, 2.5 KCl, 2 CaCl2, 1.3 MgCl2, 1.3 NaH2PO4, 25 NaHCO3, 10 glucose. Recordings were made with an Axon 700B patch-clamp amplifier and 1320A interface (Axon Instruments). Signals were filtered at 2 kHz using amplifier circuitry, sampled at 10 kHz, and analyzed using Clampex 10.2 (Axon Instruments).
To examine whether hESC-derived MGE-like cells could develop into functional interneurons that synaptically integrate in vivo, we performed whole-cell recordings of RFP+ human cells in mouse brain slices seven MPI. […]
FIG. 7. hESC-derived MGE-like Interneuron Precursor Cell Maturation and Functional Integration in the Mouse Brain. • (A) Day 35 ML cultures FACS-sorted for NKX2.1-GFP and PSA-NCAM, and injected into newborn mouse cortex. […] Scale Bar: 50 μm. • (D-E) Quantification of histology at 2 (black), 4 (orange), and 7 (blue) MPI, and of SST, CALB, and CALR (E). […] Inset: RFP fluorescence of filled neuron 7 MPI. […]

GABAA receptor = experiment: Whole-cell patch recording of post-synaptic currents in cultured hESC-derived neurons and co-cultured human fetal cortical neurons; format: cell-based
Text: The patch electrodes were made from borosilicate glass capillaries (B-120-69-15, Sutter Instruments) with a resistance in the range of 5-7 MΩ. The pipettes were tip-filled with internal solution containing (in mM): 125 K-gluconate, 15 KCl, 10 HEPES, 4 MgCl2, 4 Na2ATP, 0.3 Na3GTP, 10 Tris-phosphocreatine, 0.2 EGTA.
as §1
Photostimulation was delivered by mercury lamp (75 mW) with a GFP excitation bandpass filter and light pulses were generated by Maste-8 (A.M.P.I.) through a high-speed shutter (UNIBLITZ), the power density of the blue light (Boyden, E. S., et al. (2005). Nat Neurosci 8, 1263-1268) (Nagel, G., et al. (2003). Proc Natl Acad Sci USA 100, 13940-13945) was 8-12 mW·mm−2, measured with a power meter (Coherent Instruments).
The percentage of neurons receiving sPSCs increased from 33.3% at eight WPD (n=12) to 82.1% at 12 WPD (n=28, FIG. 6C). To confirm that GABAergic neurons were able to send outputs to neighboring neurons, we transfected half of the neurons with Synapsin promoter—Channelrhodopsin2-EYFP (ChR2-EYFP) by lentiviral infection. […] The reversal potential of light-evoked PSCs was −32.7 mV (FIGS. 6F and 6G), close to the expected Cl-reversal potential under our recording conditions [−37.3 mV=−53.4 mV (by Nernst equation)±16.1 mV (junction potential)]. […]

hESC-derived cultures [2] = experiment: Cells expressing telencephalic FOXG1 in hESC-derived cultures; format: cell-based, human
Protocol: Cultured cells were fixed in 4% paraformaldehyde for 10-20 min. Mouse brains were fixed overnight-4° C. after trans-cardial perfusion and sectioned (50 μm) by vibratome or sliding microtome. EBs and human tissue were sectioned (25 μm) by cryostat. Cells and sections were stained: 5-10 min antigen retrieval with boiling 0.01M citrate buffer pH=6, 1 hr block with 5% serum and 0.1% triton X100 in PBS, overnight-4° C. primary antibody in block buffer (except triton-free buffer used for GABA antibody), wash 3× in PBS+tritonX100, 2 hr secondary antibody (Invitrogen), wash 4× in PBS+tritoriX100.
(§2) SHH pathway activation was required for NKX2,1-GFP+ cell derivation. In this study, we used 1-2 μM of purmorphamine or 500 ng/mL of SHH. […] Addition of an FGF inhibitor (PD173074) from the onset of differentiation (d0-25) caused a decrease in cells expressing FOXG1 (55%), but addition of the same inhibitor on day 14 (d14-25) had no effect on FOXG1 levels (not shown). Therefore, similar to fetal forebrain development, early inhibition of WNT and activation of FGF signaling pathways, along with SHH activation, play roles in patterning the ventral-telencephalic-like identity of hESC-derived cultures.

HES-3 NKX2.1GFP/w hESCs = experiment: NKX2.1-GFP+ differentiation efficiency of hESCs by FACS / flow cytometry; format: cell-based, human; details: for NKX2.1-GFP+ MGE precursor-like cell efficiency: KSR/B27 media
Protocol: HES-3 hESCs were maintained on irradiated mouse embryonic fibroblasts (Millipore) in knockout DMEM with 20% knockout serum replacement, 1% nonessential amino acids (NEAA), 1% pen-strep-glutamine, 0.0008% 2-mercaptoethanol, and 10 ng/mL FGF-basic (Invitrogen), Differentiation was initiated by CollagenaseIV/Dispase (1 mg/mL each; Invitrogen) preferential selection for hESC colonies. Colonies were trypsinized to single cells, and, as described (Eiraku, M., et al. (2008). Cell Stem Cell 3, 519-532), ˜10,000 cells/well were plated into low-attachment round-bottom 96-well plates (Corning or NOF) to form one sEB/well in optimized B27+5F; differentiation medium #1, consisting of Neurobasal-A, 2% B27-vitamin A (Invitrogen), and the same supplements in hESC media but without FGF. Also, Y27632 (10 μM), SB3431542 (10 μM), Purmorphamine (1-2 μM) (Stemgent), BMPRIA-Fc (1.5 μg/mL), and DIKK1 (1 μg/mL) (Invitrogen) were added.
On ˜d7, Y27632 was removed, and sEBs were plated adherent en-bloc onto matrigel (BD Biosciences) coated plates in medium #1. On ˜d14, factors were removed from medium #1 except for Purmorphamine. On ˜d25, aEBs were trypsinized and replated as dissociated monolayer onto matrigel or polyornithine/laminin coated plates. DAPT (10 μM) (Tocris) was added from ˜d27-d30. After FACS sorting on day ˜35, GFP+ cells could be replated (10-25,000 cells/cm2) onto cortical glial cells in medium #1. Glial cells were prepared from newborn mouse cortex, passaged at least 3× with serum to remove mouse neurons, and pre-treated at confluency with Ara-C (5 μM) (Sigma). Every 3-4 days, half of media was replaced with differentiation medium #2: Neurobasal-A, 2% B27+vitamin A, (Invitrogen) and same supplements in medium #1, without factors, except NEAA and Purmorphamine were removed, and BDNF (25 ng/mL) was added (R&D Systems). Media was replaced every 3-4 days.
FACS analysis and sorting was performed on FACS Aria II (BD Biosciences). Cells were gated for live cell DAN exclusion, small scatter size, single cells, NKX2.1-GFP signal, and PSA-NCAM-APC or -PE (Miltenyi Biotech) signal intensity. GFP-negative cells and isotype antibody (Santa Cruz) controls were used. Data was analyzed with Flowjo (Treestar) software. For live cell imaging, differentiation was similar to above, but 5,000 cells/well were plated into Aggrewell-800 plates (Stem Cell Technologies), and sEBs were plated en-bloc on day 4-7. Imaging was performed by time-lapse confocal microscopy with temperature (37° C.) and gas (5% O2, 5% CO2, 90% N2) controls (Leica SP5).
FIG. 24, Bottom Panel: Flow cytometry was used to determine the efficiency of generation of NKX2.1GFP+ MGE precursor cells using the small molecule inhibitors. The efficiency of generation of NKX2.1GFP+ MGE precursor cells was determined as what percent of cells of the cells analyzed were NKX2.1GFP+ MGE precursor cells.

hESC-derived cultures [3] = experiment: Viability of differentiating hESC cultures; format: cell-based, human; details: 2-6 μM purmorphamine
Protocol: as §2
Cost-effective cell production methods will be preferred over lengthy protocols and expensive recombinant protein-based reagents, and cryopreservation of cells will facilitate future work. Here, we used 3 small molecules (Y27632, SB431542, and purmorphamine) and 2 recombinant proteins (BMPRIA-Fc and DKK1). Several small molecule substitutes now exist for inhibition of BMP and WNT pathways. […] In addition, ˜25% of hESC-derived MGE-like cells were viable after cryopreservation and thawing, and thawed cells matured into neurons with functional properties as confirmed by electrophysiology.

Question: How did the “block of remaining spontaneous PSCs with fast decay-time” value ([1]; applied after BMI) turn out when N#Cc1cc2nc(O)c(O)nc2cc1[N+](=O)[O-] [CNQX, 6-Cyano-2,3-dihydroxy-7-nitro-quinoxaline] was run?
Answer: Its value is “blocked”.

Question: What does the source list for C[N+]1(C)CCc2cc3c(cc2[C@H]1[C@@H]1OC(=O)c2c1ccc1c2OCO1)OCO3.[I-] [BMI, bicuculline methiodide]?
Answer: block of spontaneous post-synaptic currents (sPSC) (GABAA receptor; BMI 20 μM, hESC-derived neurons co-cultured with mouse glial cells, eight weeks post-differentiation): fully blocked; block of light-evoked PSCs (GABAA receptor; ChR2-EYFP hESC-derived neurons, blue light, neighboring neurons): reversible blockade; block of light-evoked GABAergic-specific PSCs in primary human fetal cortical neurons (GABAA receptor; co-culture seven weeks with ChR2 hESC-derived neurons): completely blocked; block of spontaneous PSCs with slow decay-time [1]: blocked

Question: What does the source list for CCN(CC)CCCCNc1ncc2cc(-c3cc(OC)cc(OC)c3)c(NC(=O)NC(C)(C)C)nc2n1 [PD173074]?
Answer: cells expressing FOXG1 (hESC-derived cultures [2]; FGF inhibitor added from onset of differentiation (d0-25)): 55%; effect on FOXG1 levels (hESC-derived cultures [2]; FGF inhibitor added on day 14 (d14-25)): no effect

Question: How did the “GFP+ differentiation efficiency in EB cultures” value (HES-3 NKX2.1GFP/w hESCs; 2-6 μM purmorphamine versus 1-2 μM used) turn out when c1ccc2c(Oc3nc(Nc4ccc(N5CCOCC5)cc4)c4ncn(C5CCCCC5)c4n3)cccc2c1 [purmorphamine] was run?
Answer: Its value is “slightly increased”.

Question: What about the “NKX2.1-GFP+ MGE precursor-like cell efficiency” value (HES-3 NKX2.1GFP/w hESCs; 25-day hybrid method, purmorphamine day 10-25, SB431542, BMPRIA-Fc and DKK1 throughout, FACS) of the same molecule?
Answer: Its value is 12%.

Question: And the “NKX2.1-GFP+ MGE precursor cells” value (HES-3 NKX2.1GFP/w hESCs; B27 media throughout 25-day protocol, early addition of five factors (Y27632, SB431542, BMPRIA-Fc, DKK1, purmorphamine))?
Answer: The value was 70%.

Question: What about the “NKX2.1-GFP+ differentiation efficiency” value (HES-3 NKX2.1GFP/w hESCs; B27 media, early purmorphamine, inhibitors removed after two weeks (d14), protocol extended to day 35, FACS) of the same molecule?
Answer: The value was “up to 90%”.

Question: And the “NKX2.1-GFP+ MGE precursor-like cell efficiency” value (HES-3 NKX2.1GFP/w hESCs; as hybrid method but purmorphamine from day 0-25)?
Answer: The value was 1.9%.

Question: What about the “viability of later-stage monolayer cultures” value (hESC-derived cultures [3]) of the same molecule?
Answer: The value was “decreased”.

B1: DKK1: Dickkopf homolog 1, recombinant protein WNT inhibitor (protein, UniProt O94907 32-266, looked up)
Dickkopf-related protein 1: TLNSVLNSNAIKNLPPPLGGAAGHPGSAVSAAPGILYPGGNKYQTIDNYQPYPCAEDEECGTDEYCASPTRGGDAGVQICLACRKRRKRCMRHAMCCPGNYCKNGICVSSDQNHFRGEIEETITESFGNDHSTLDGYSRRTTLSSKMYHTKGQEGSVCLRSSDCASGLCCARHFWSKICKPVLKEGQVCTKHRRKGSHGLEIFQRCYCGEGLSCRIQKDHHQASNSSRLHTCQRH
Question: Which results are given for B1?
Answer: GFP+ cell differentiation efficiency (HES-3 NKX2.1GFP/w hESCs; DKK1 WNT inhibitor absent versus present): similar; number of cells expressing telencephalic FOXG1 (hESC-derived cultures [2]; DKK1 WNT inhibitor absent): 45%; number of cells expressing telencephalic FOXG1 (hESC-derived cultures [2]; with DKK1 WNT inhibitor): 70%
